In the supplement of paper PMC13380429:

Assays:
Settings in all cases: 72 h
[1] = test system: Caco-2; assay: cell viability relative to DMSO; higher = less toxic
[2] = test system: Calu-3; assay: as above
[3] = test system: HepG2; assay: as above
[4] = test system: U2OS; assay: as above
[5] = test system: Vero E6; assay: as above
[6] = test system: Caco-2; assay: relative viability EC50 (midpoint between 100% and the lowest measured viability); higher = less toxic
[7] = test system: Calu-3; assay: as above
[8] = test system: HepG2; assay: as above
[9] = test system: U2OS; assay: as above
[10] = test system: Vero E6; assay: as above
[11] = test system: Caco-2; assay: drug sensitivity score (DSS) for viability; higher = more toxic; extreme values may be limits of the assay
[12] = test system: Calu-3; assay: as above
[13] = test system: HepG2; assay: as above
[14] = test system: U2OS; assay: as above
[15] = test system: Vero E6; assay: as above

## O=C(N[C@H]1CN2CCC1CC2)c1ccc(Cl)cc1
[1]; 1 nM
  cell viability: 98.5%
[1]; 10 nM
  cell viability: 97.8%
[1]; 100 nM
  cell viability: 103%
[1]; 1000 nM
  cell viability: 98.3%
[1]; 10000 nM
  cell viability: 92.6%
[2]; 1 nM
  cell viability: 99.6%
[2]; 10 nM
  cell viability: 88.7%
[2]; 100 nM
  cell viability: 99.6%
[2]; 1000 nM
  cell viability: 99.8%
[2]; 10000 nM
  cell viability: 95.6%
[3]; 1 nM
  cell viability: 97.2%
[3]; 10 nM
  cell viability: 92.2%
[3]; 100 nM
  cell viability: 93.7%
[3]; 1000 nM
  cell viability: 102%
[3]; 10000 nM
  cell viability: 94.3%
[4]; 1 nM
  cell viability: 102%
[4]; 10 nM
  cell viability: 97.4%
[4]; 100 nM
  cell viability: 99.9%
[4]; 1000 nM
  cell viability: 95.7%
[4]; 10000 nM
  cell viability: 101%
[5]; 1 nM
  cell viability: 96.7%
[5]; 10 nM
  cell viability: 94.7%
[5]; 100 nM
  cell viability: 95.4%
[5]; 1000 nM
  cell viability: 92.7%
[5]; 10000 nM
  cell viability: 92.5%
[6]
  relative viability EC50: > 10 µM
[7]
  relative viability EC50: > 10 µM
[8]
  relative viability EC50: > 10 µM
[9]
  relative viability EC50: > 10 µM
[10]
  relative viability EC50: > 10 µM
[11]
  drug sensitivity score: 0
[12]
  drug sensitivity score: 0
[13]
  drug sensitivity score: 0
[14]
  drug sensitivity score: 0
[15]
  drug sensitivity score: 0

## O=C(Nc1cnccc1Cl)N1CCN(Cc2ccc3c(c2)OC(F)(F)O3)CC1
[1]; 1 nM
  cell viability: 97.7%
[1]; 10 nM
  cell viability: 101%
[1]; 100 nM
  cell viability: 94%
[1]; 1000 nM
  cell viability: 90.3%
[1]; 10000 nM
  cell viability: 81%
[2]; 1 nM
  cell viability: 92.4%
[2]; 10 nM
  cell viability: 100%
[2]; 100 nM
  cell viability: 95.2%
[2]; 1000 nM
  cell viability: 99%
[2]; 10000 nM
  cell viability: 92.8%
[3]; 1 nM
  cell viability: 95.6%
[3]; 10 nM
  cell viability: 100%
[3]; 100 nM
  cell viability: 100%
[3]; 1000 nM
  cell viability: 91.6%
[3]; 10000 nM
  cell viability: 39.3%
[4]; 1 nM
  cell viability: 99.8%
[4]; 10 nM
  cell viability: 97.5%
[4]; 100 nM
  cell viability: 99.1%
[4]; 1000 nM
  cell viability: 98.8%
[4]; 10000 nM
  cell viability: 94%
[5]; 1 nM
  cell viability: 108%
[5]; 10 nM
  cell viability: 103%
[5]; 100 nM
  cell viability: 103%
[5]; 1000 nM
  cell viability: 100%
[5]; 10000 nM
  cell viability: 92.4%
[6]
  relative viability EC50: > 10 µM
[7]
  relative viability EC50: > 10 µM
[8]
  relative viability EC50: 2.06 µM
[9]
  relative viability EC50: > 10 µM
[10]
  relative viability EC50: > 10 µM
[11]
  drug sensitivity score: 1
[12]
  drug sensitivity score: 0
[13]
  drug sensitivity score: 4.7
[14]
  drug sensitivity score: 0
[15]
  drug sensitivity score: 0

## O=C(O)c1ccc(-c2c[nH]c3ncc(-c4ccccc4)cc23)cc1C1CCCC1
[1]; 1 nM
  cell viability: 92.8%
[1]; 10 nM
  cell viability: 107%
[1]; 100 nM
  cell viability: 101%
[1]; 1000 nM
  cell viability: 105%
[1]; 10000 nM
  cell viability: 93.5%
[2]; 1 nM
  cell viability: 98.8%
[2]; 10 nM
  cell viability: 92.9%
[2]; 100 nM
  cell viability: 97.6%
[2]; 1000 nM
  cell viability: 107%
[2]; 10000 nM
  cell viability: 107%
[3]; 1 nM
  cell viability: 103%
[3]; 10 nM
  cell viability: 100%
[3]; 100 nM
  cell viability: 107%
[3]; 1000 nM
  cell viability: 89.6%
[3]; 10000 nM
  cell viability: 84.2%
[4]; 1 nM
  cell viability: 96.4%
[4]; 10 nM
  cell viability: 94.9%
[4]; 100 nM
  cell viability: 90.4%
[4]; 1000 nM
  cell viability: 97.3%
[4]; 10000 nM
  cell viability: 85.8%
[5]; 1 nM
  cell viability: 109%
[5]; 10 nM
  cell viability: 106%
[5]; 100 nM
  cell viability: 104%
[5]; 1000 nM
  cell viability: 97%
[5]; 10000 nM
  cell viability: 101%
[6]
  relative viability EC50: > 10 µM
[7]
  relative viability EC50: > 10 µM
[8]
  relative viability EC50: > 10 µM
[9]
  relative viability EC50: > 10 µM
[10]
  relative viability EC50: > 10 µM
[11]
  drug sensitivity score: 0
[12]
  drug sensitivity score: 0
[13]
  drug sensitivity score: 1.1
[14]
  drug sensitivity score: 0
[15]
  drug sensitivity score: 0

## Oc1cc2c(c(Cl)c1O)CCNCC2c1ccccc1 (stereo not given)
[1]; 1 nM
  cell viability: 99.2%
[1]; 10 nM
  cell viability: 94.9%
[1]; 100 nM
  cell viability: 85.4%
[1]; 1000 nM
  cell viability: 90.9%
[1]; 10000 nM
  cell viability: 95.5%
[2]; 1 nM
  cell viability: 95.1%
[2]; 10 nM
  cell viability: 106%
[2]; 100 nM
  cell viability: 97.7%
[2]; 1000 nM
  cell viability: 106%
[2]; 10000 nM
  cell viability: 91.1%
[3]; 1 nM
  cell viability: 93.2%
[3]; 10 nM
  cell viability: 100%
[3]; 100 nM
  cell viability: 100%
[3]; 1000 nM
  cell viability: 103%
[3]; 10000 nM
  cell viability: 86.8%
[4]; 1 nM
  cell viability: 100%
[4]; 10 nM
  cell viability: 97%
[4]; 100 nM
  cell viability: 102%
[4]; 1000 nM
  cell viability: 97.8%
[4]; 10000 nM
  cell viability: 104%
[5]; 1 nM
  cell viability: 104%
[5]; 10 nM
  cell viability: 106%
[5]; 100 nM
  cell viability: 103%
[5]; 1000 nM
  cell viability: 104%
[5]; 10000 nM
  cell viability: 98.6%
[6]
  relative viability EC50: > 10 µM
[7]
  relative viability EC50: > 10 µM
[8]
  relative viability EC50: > 10 µM
[9]
  relative viability EC50: > 10 µM
[10]
  relative viability EC50: > 10 µM
[11]
  drug sensitivity score: 0
[12]
  drug sensitivity score: 0
[13]
  drug sensitivity score: 0.1
[14]
  drug sensitivity score: 0
[15]
  drug sensitivity score: 0

## Oc1ccc2[nH]cc(C3=CCNCC3)c2n1
[1]; 1 nM
  cell viability: 79.9%
[1]; 10 nM
  cell viability: 95.6%
[1]; 100 nM
  cell viability: 97%
[1]; 1000 nM
  cell viability: 98.1%
[1]; 10000 nM
  cell viability: 100%
[2]; 1 nM
  cell viability: 100%
[2]; 10 nM
  cell viability: 92.6%
[2]; 100 nM
  cell viability: 105%
[2]; 1000 nM
  cell viability: 104%
[2]; 10000 nM
  cell viability: 102%
[3]; 1 nM
  cell viability: 107%
[3]; 10 nM
  cell viability: 106%
[3]; 100 nM
  cell viability: 97.6%
[3]; 1000 nM
  cell viability: 89.1%
[3]; 10000 nM
  cell viability: 100%
[4]; 1 nM
  cell viability: 94.8%
[4]; 10 nM
  cell viability: 100%
[4]; 100 nM
  cell viability: 97.1%
[4]; 1000 nM
  cell viability: 106%
[4]; 10000 nM
  cell viability: 105%
[5]; 1 nM
  cell viability: 105%
[5]; 10 nM
  cell viability: 91.2%
[5]; 100 nM
  cell viability: 99.4%
[5]; 1000 nM
  cell viability: 97%
[5]; 10000 nM
  cell viability: 102%
[6]
  relative viability EC50: > 10 µM
[7]
  relative viability EC50: > 10 µM
[8]
  relative viability EC50: > 10 µM
[9]
  relative viability EC50: > 10 µM
[10]
  relative viability EC50: > 10 µM
[11]
  drug sensitivity score: 0
[12]
  drug sensitivity score: 0
[13]
  drug sensitivity score: 0
[14]
  drug sensitivity score: 0
[15]
  drug sensitivity score: 0

## O[C@@H]1[C@H](O)[C@@H](CCl)O[C@H]1n1cnc2c(NC3CC4CCC3C4)ncnc21 (mixture of isomers) [5'-chloro-5'-deoxy-ENBA-(+/-)]
[1]; 1 nM
  cell viability: 98.8%
[1]; 10 nM
  cell viability: 99.6%
[1]; 100 nM
  cell viability: 99.2%
[1]; 1000 nM
  cell viability: 97.2%
[1]; 10000 nM
  cell viability: 86.1%
[2]; 1 nM
  cell viability: 99.1%
[2]; 10 nM
  cell viability: 98%
[2]; 100 nM
  cell viability: 93.3%
[2]; 1000 nM
  cell viability: 94.8%
[2]; 10000 nM
  cell viability: 90.2%
[3]; 1 nM
  cell viability: 96%
[3]; 10 nM
  cell viability: 99.6%
[3]; 100 nM
  cell viability: 96.2%
[3]; 1000 nM
  cell viability: 99.5%
[3]; 10000 nM
  cell viability: 85.4%
[4]; 1 nM
  cell viability: 104%
[4]; 10 nM
  cell viability: 100%
[4]; 100 nM
  cell viability: 99.3%
[4]; 1000 nM
  cell viability: 104%
[4]; 10000 nM
  cell viability: 97.6%
[5]; 1 nM
  cell viability: 96.7%
[5]; 10 nM
  cell viability: 97.2%
[5]; 100 nM
  cell viability: 94.3%
[5]; 1000 nM
  cell viability: 91.9%
[5]; 10000 nM
  cell viability: 91.5%
[6]
  relative viability EC50: > 10 µM
[7]
  relative viability EC50: > 10 µM
[8]
  relative viability EC50: > 10 µM
[9]
  relative viability EC50: > 10 µM
[10]
  relative viability EC50: > 10 µM
[11]
  drug sensitivity score: 0.4
[12]
  drug sensitivity score: 0
[13]
  drug sensitivity score: 0.2
[14]
  drug sensitivity score: 0
[15]
  drug sensitivity score: 0
